Publication PMC6272711, “5-Methoxyquinoline Derivatives as a New Class of EZH2 Inhibitors” (Molecules, 2015)
Entries after “also recorded” stand apart in the source; their conditions may differ. Like-named read-outs stand apart in the source and are kept apart here.

Legend:
G9a = target: T1, G9a (Homo sapiens, UniProt Q96KQ7); experiment: Enzyme selectivity assay, G9a; assay type: biochemical; details: means of at least three measurements
T1 sequence (Q96KQ7 1-1210): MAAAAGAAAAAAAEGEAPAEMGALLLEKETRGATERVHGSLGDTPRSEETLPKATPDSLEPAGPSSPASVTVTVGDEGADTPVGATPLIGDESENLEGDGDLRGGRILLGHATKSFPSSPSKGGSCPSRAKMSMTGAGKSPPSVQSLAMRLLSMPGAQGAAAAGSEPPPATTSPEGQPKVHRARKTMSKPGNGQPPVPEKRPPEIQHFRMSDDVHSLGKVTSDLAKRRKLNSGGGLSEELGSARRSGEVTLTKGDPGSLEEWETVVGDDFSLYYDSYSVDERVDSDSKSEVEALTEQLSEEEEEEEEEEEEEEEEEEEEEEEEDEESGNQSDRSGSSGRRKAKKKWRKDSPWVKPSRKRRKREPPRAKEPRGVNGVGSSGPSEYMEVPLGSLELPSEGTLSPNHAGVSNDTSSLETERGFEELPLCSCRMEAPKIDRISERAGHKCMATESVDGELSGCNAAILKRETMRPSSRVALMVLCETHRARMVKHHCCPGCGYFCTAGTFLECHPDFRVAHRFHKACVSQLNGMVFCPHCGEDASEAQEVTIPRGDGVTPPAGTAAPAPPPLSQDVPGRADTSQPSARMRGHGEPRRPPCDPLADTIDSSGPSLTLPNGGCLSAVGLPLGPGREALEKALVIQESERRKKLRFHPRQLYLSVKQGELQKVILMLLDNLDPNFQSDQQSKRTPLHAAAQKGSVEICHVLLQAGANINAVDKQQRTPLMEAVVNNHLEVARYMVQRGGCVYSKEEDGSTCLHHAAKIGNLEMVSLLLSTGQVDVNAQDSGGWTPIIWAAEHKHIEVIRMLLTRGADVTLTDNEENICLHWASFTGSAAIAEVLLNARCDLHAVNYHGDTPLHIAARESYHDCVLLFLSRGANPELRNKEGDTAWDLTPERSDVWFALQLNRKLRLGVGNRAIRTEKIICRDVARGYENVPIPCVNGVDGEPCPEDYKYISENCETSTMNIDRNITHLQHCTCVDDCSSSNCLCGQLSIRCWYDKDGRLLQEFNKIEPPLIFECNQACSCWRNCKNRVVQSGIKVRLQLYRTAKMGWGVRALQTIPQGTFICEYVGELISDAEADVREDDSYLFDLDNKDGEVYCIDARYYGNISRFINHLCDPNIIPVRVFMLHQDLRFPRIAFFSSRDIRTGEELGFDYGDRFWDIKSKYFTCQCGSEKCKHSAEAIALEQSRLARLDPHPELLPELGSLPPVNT

SETDB1 = SETDB1 (Homo sapiens, UniProt Q15047); experiment: Enzyme selectivity assay, SETDB1; assay type: biochemical; details: means of at least three measurements
SETD8 = target: T2, SETD8 (Homo sapiens, UniProt Q9NQR1); experiment: Enzyme selectivity assay, SETD8; assay type: biochemical; details: means of at least three measurements
T2 sequence (Q9NQR1 1-393): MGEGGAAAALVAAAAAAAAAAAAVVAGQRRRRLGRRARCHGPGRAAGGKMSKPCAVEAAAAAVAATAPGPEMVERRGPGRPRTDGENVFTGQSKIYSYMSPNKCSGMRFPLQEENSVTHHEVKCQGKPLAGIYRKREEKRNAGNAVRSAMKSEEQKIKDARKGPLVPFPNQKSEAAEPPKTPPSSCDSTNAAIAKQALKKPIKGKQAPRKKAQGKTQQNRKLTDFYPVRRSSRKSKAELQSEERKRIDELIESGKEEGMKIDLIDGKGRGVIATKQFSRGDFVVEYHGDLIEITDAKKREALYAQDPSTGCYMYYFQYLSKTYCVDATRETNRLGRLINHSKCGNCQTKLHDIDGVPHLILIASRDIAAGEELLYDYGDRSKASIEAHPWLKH

HCT15 = experiment: MTT cell growth inhibition, HCT15; assay type: cell-based, human; details: means of at least three measurements
MDA-MB-231 = experiment: MTT cell growth inhibition, MDA-MB-231; assay type: cell-based; details: Homo sapiens, MDA-MB-231, 96 h, read-out: IC50 MDA-MB-231
PRMT1 = PRMT1 (Homo sapiens, UniProt Q99873); experiment: Enzyme selectivity assay, PRMT1; assay type: biochemical; details: means of at least three measurements
[1] = test system: H3K27me3 level in MDA-MB-231 cell line; experiment: Western blotting assay of H3K27me3 status; assay type: cell-based, human; details: MDA-MB-231 cells, treatment for 72 h, western blot, total H3 loading control
Description: The main catalytic activity of EZH2 is methylating histone 3 lysine 27 (H3K27), so evaluation of H3K27me3 was conducted through a western blotting assay.
Figure 3 Analysis of H3K27 methylation in MDA-MB-231 cell line treated with 1 and 5k. Evaluation of H3K27me3 following treatment for 72 h. Total H3 is shown as a loading control.
The western blotting assay of H3K27 status was performed as previously described.

SMYD3 = target: T3, SMYD3 (Homo sapiens, UniProt Q9H7B4); experiment: Enzyme selectivity assay, SMYD3; assay type: biochemical; details: means of at least three measurements
T3 sequence (Q9H7B4 1-428): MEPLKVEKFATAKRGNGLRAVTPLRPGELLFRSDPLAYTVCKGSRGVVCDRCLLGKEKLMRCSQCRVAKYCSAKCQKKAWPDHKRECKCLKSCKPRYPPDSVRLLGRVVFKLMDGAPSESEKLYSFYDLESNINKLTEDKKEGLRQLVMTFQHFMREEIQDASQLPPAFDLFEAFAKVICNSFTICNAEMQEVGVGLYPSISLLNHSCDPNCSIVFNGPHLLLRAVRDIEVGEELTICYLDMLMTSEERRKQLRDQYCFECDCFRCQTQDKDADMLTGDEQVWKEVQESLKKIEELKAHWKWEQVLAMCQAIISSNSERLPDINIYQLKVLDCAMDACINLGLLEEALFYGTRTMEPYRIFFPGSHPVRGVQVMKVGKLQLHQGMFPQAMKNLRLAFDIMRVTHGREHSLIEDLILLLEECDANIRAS

SUV39H1 = target: T4, SUV39H1 (Homo sapiens, UniProt O43463); experiment: Enzyme selectivity assay, SUV39H1; assay type: biochemical; details: means of at least three measurements
T4 sequence (O43463 1-412): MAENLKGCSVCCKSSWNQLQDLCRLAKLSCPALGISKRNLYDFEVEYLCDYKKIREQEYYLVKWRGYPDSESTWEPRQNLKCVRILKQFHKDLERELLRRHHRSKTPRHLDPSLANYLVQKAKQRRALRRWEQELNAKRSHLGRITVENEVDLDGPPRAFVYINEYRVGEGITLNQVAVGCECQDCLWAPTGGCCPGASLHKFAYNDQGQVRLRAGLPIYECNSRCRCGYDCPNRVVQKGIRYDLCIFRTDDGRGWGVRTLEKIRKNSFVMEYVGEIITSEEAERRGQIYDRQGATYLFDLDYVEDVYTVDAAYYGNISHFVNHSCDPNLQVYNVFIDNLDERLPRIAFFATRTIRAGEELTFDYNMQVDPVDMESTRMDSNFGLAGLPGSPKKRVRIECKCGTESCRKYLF

EZH2 = EZH2 (Homo sapiens, UniProt Q15910); experiment: AlphaLISA assay for EZH2; assay type: biochemical; details: enzymatic assay; means of at least three measurements
[2] = Homo sapiens, HCT-15, 96 h, read-out: IC50 HCT15, MTT, treatment 96 h

Chain of EZH2 (Q15910 whole entry): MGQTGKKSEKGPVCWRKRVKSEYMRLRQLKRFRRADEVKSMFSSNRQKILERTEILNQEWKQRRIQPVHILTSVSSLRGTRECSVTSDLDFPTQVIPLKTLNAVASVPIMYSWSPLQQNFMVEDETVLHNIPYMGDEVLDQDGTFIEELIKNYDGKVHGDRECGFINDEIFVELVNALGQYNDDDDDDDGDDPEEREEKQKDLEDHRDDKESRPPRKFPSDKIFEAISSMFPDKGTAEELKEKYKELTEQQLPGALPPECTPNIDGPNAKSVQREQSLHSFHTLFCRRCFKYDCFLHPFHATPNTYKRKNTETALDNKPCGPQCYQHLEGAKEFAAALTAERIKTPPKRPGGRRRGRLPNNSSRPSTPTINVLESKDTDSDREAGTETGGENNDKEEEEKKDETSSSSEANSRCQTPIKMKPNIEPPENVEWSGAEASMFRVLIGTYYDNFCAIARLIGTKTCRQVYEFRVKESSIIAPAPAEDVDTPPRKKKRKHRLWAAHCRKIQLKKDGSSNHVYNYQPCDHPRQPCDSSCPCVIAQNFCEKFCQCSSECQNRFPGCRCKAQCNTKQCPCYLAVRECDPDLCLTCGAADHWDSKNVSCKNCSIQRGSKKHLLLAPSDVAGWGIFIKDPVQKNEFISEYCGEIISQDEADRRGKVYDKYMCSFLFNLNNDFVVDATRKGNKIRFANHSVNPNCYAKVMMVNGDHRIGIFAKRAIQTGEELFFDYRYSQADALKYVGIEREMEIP
Chain of EZH2 (O75530 whole entry partner): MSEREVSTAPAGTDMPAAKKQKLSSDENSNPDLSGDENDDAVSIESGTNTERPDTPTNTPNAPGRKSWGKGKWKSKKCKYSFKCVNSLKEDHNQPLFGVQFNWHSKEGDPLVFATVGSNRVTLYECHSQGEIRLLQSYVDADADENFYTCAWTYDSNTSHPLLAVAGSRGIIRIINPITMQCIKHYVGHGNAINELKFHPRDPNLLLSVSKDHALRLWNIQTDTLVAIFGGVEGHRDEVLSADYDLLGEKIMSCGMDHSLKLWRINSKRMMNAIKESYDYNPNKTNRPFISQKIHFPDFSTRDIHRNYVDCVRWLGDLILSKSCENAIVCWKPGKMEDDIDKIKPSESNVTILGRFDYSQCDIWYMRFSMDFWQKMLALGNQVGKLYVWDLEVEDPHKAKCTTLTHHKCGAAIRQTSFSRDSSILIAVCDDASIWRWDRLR
Chain of EZH2 (Q15022 whole entry partner): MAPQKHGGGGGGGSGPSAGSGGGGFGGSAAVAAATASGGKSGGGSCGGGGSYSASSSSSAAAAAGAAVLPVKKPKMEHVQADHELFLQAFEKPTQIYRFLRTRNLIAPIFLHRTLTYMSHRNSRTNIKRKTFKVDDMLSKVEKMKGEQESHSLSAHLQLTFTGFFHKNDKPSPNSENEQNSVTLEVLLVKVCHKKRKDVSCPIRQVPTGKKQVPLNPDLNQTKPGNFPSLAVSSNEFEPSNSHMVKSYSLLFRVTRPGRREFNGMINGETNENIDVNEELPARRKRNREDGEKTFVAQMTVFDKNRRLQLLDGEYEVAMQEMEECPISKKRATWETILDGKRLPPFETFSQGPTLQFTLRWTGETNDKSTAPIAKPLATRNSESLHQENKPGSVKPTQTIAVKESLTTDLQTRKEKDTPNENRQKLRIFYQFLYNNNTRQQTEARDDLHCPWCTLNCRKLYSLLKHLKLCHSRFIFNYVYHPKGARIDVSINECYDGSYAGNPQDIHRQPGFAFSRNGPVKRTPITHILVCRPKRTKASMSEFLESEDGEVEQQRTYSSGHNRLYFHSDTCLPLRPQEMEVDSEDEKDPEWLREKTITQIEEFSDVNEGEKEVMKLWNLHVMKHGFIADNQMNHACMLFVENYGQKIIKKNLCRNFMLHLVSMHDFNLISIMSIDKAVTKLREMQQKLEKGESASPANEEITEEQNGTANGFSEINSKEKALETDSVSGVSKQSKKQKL
Chain of PRMT1 (Q99873 whole entry, species assumed): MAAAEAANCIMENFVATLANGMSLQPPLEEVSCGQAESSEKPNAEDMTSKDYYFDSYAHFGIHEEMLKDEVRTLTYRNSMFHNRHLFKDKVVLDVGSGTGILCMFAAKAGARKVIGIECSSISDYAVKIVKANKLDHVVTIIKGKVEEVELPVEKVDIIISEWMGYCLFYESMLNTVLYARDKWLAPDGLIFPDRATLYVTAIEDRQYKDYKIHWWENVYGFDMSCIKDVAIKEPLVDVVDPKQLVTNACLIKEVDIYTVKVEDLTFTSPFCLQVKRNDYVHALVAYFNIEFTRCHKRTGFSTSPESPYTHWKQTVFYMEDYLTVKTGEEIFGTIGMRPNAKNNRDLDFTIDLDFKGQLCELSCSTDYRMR

COc1cccc2nc(N3CCCN(C)CC3)cc(NC3CCN(C)CC3)c12 [Compound 5k, 5-Methoxy-2-(4-methyl-1,4-diazepan-1-yl)-N-(1-methylpiperidin-4-yl)quinolin-4-amine]
IC50 (G9a): 82.6 ± 2.23 µM
IC50 (SETDB1): 27 ± 1.36 µM
IC50 (SETD8): 40 ± 2.71 µM
IC50 (HCT15; [2]): 5.6 µM
IC50 (HCT15; read-out: IC50 HCT15, MTT, treatment 96 h): 7.6 ± 0.46 µM
IC50 (MDA-MB-231): 2.45 ± 0.24 µM
IC50 (PRMT1): 28.8 ± 1.25 µM
H3K27me3 level [1]: decreased global H3K27me3 level in cells; also recorded: obviously down-regulated
IC50 (SMYD3): 35.4 ± 1.97 µM
IC50 (SUV39H1): 21.2 ± 0.28 µM

COc1cccc2nc(N3CCCN(C)CC3)cc(Nc3ccc(C)cc3)c12 [Compound 5r, 5-Methoxy-2-(4-methyl-1,4-diazepan-1-yl)-N-(p-tolyl)quinolin-4-amine]
IC50 (HCT15; [2]): 12.9 ± 0.89 µM
IC50 (MDA-MB-231): > 20 µM
IC50 (EZH2): 39.7 ± 1.26 µM

COc1ccc(OC)c2c(NC3CCN(C)CC3)cc(N3CCCN(C)CC3)nc12 [Compound 9f, 5,8-Dimethoxy-2-(4-methyl-1,4-diazepan-1-yl)-N-(1-methylpiperidin-4-yl)quinolin-4-amine]
IC50 (HCT15; [2]): 15.5 ± 0.53 µM
IC50 (MDA-MB-231): 12.4 ± 0.49 µM
IC50 (EZH2): 9.2 ± 0.51 µM

COc1ccc(Nc2cc(N3CCCN(C)CC3)nc3cccc(OC)c23)cc1 [Compound 5m, 5-Methoxy-N-(4-methoxyphenyl)-2-(4-methyl-1,4-diazepan-1-yl)quinolin-4-amine]
IC50 (HCT15; [2]): 18.9 ± 1.97 µM
IC50 (MDA-MB-231): > 20 µM
IC50 (EZH2): 19.7 ± 2.56 µM
